# Results taken from the supplement of paper PMC10331698.
# ± gives the standard deviation of the averaged measurements.
# How the values were obtained:
# Assay in all cases: level (log10 ratio to DMSO vehicle control); higher = higher biomarker level / cell amount than vehicle control
# Settings in all cases: in DMSO
# Hexafluoroglutaric acid = compound: O=C(O)C(F)(F)C(F)(F)C(F)(F)C(=O)O [Hexafluoroglutaric acid]
# Description: (§1)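 BioMAP Diversity Plus panel of 12 human primary cell co-culture systems (3C, 4H, LPS, SAg, BT, BF4T, BE3C, CASM3C, HDF3CGF, KF3CT, MyoF, Mphg). Compounds were added 1 h before stimulation and left for 24 h (MyoF 48 h; BT 72 h for soluble read-outs or 6 d for IgG). Biomarkers were read by ELISA, cytotoxicity by SRB, PBMC viability and proliferation by Alamar Blue. Each well value was divided by the mean of 8 DMSO control wells on the same plate and log10 transformed; duplicate blinded samples were tested at 4 concentrations.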
# [1] = compound: O=C(O)CCC(F)(F)C(F)(F)C(F)(F)F [3:3 Fluorotelomer carboxylic acid]
# Description: as §1
# Azathioprine = compound: Cn1cnc([N+](=O)[O-])c1Sc1ncnc2[nH]cnc12 [Azathioprine]
# Description: as §1
# [2] = compound: CNS(=O)(=O)C(F)(F)C(F)(F)C(F)(F)C(F)(F)C(F)(F)C(F)(F)C(F)(F)C(F)(F)F [N-Methylperfluorooctanesulfonamide]
# Description: as §1
# [3] = compound: C=C(C)C(=O)OCC(F)(F)C(F)(F)C(F)(F)C(F)(F)C(F)(F)C(F)(F)C(F)(F)F
# Description: as §1
# [4] = compound: O=C(O)C(F)(F)OC(F)(F)C(F)(F)OC(F)(F)C(F)(F)C(F)(F)C(F)(F)F [Perfluoro-3,6-dioxadecanoic acid]
# Description: as §1
Test System,level (log10) (Hexafluoroglutaric acid; 6700 nM),level (log10) (Hexafluoroglutaric acid; 20000 nM),level (log10) (Hexafluoroglutaric acid; 60000 nM),level (log10) ([1]; 6700 nM),level (log10) ([1]; 20000 nM),level (log10) ([1]; 60000 nM),level (log10) (Azathioprine; 1400 nM),level (log10) (Azathioprine; 4200 nM),level (log10) (Azathioprine; 13000 nM),level (log10) (Azathioprine; 38000 nM),level (log10) ([2]; 6700 nM),level (log10) ([2]; 20000 nM),level (log10) ([2]; 60000 nM),level (log10) ([3]; 6700 nM),level (log10) ([3]; 20000 nM),level (log10) ([4]; 6700 nM),level (log10) ([4]; 20000 nM),level (log10) ([4]; 60000 nM)
lMphg:CD40,-0.0015 ± 0.012,-0.013 ± 0.0014,-0.066 ± 0.061,-0.0195 ± 0.064,-0.028 ± 0.067,0.0065 ± 0.018,-0.0125 ± 0.04,-0.0205 ± 0.013,-0.025 ± 0.0014,-0.106 ± 0.03,-0.054 ± 0.042,-0.0365 ± 0.021,0.0255 ± 0.063,-0.0265 ± 0.0064,-0.025 ± 0.0042,0.002 ± 0.047,-0.0175 ± 0.035,-0.102 ± 0.023
lMphg:CD62E/E-Selectin,-0.0065 ± 0.026,0.001 ± 0.02,-0.0165 ± 0.043,0.014 ± 0.025,0.028 ± 0.023,0.0435 ± 0.023,-0.037 ± 0.045,-0.031 ± 0.048,-0.064 ± 0.0085,-0.148 ± 0.051,-0.12 ± 0.034,-0.214 ± 0.03,-0.182 ± 0.058,-0.0215 ± 0.0021,-0.021 ± 0.0042,0.0095 ± 0.016,-0.0035 ± 0.037,0.0135 ± 0.015
lMphg:CD69,-0.037 ± 0.028,-0.0325 ± 0.0021,-0.0525 ± 0.015,0.013 ± 0.013,0.053 ± 0.047,0.035 ± 0.037,0.027 ± 0.013,-0.0205 ± 0.029,-0.004 ± 0.0028,0.022 ± 0.011,-0.0715 ± 0.03,-0.0165 ± 0.013,0.061 ± 0.027,-0.0135 ± 0.018,-0.004 ± 0.038,-0.0505 ± 0.021,-0.0425 ± 0.0021,-0.196 ± 0.063
lMphg:CD106/VCAM-1,0.0045 ± 0.011,-0.005 ± 0.0057,-0.0255 ± 0.00071,0.002 ± 0.013,0.009 ± 0.0014,0.0045 ± 0.013,0 ± 0.0057,-0.003 ± 0.0085,-0.036,-0.0835 ± 0.025,0.015 ± 0.014,0.0515 ± 0.0092,0.0645 ± 0.026,-0.0385 ± 0.0035,-0.0535 ± 0.026,-0.004 ± 0.018,-0.0055 ± 0.021,-0.0585 ± 0.039
lMphg:CXCL8/IL-8,0.014 ± 0.0042,0.044 ± 0.072,-0.0185 ± 0.0021,-0.0215 ± 0.059,-0.001 ± 0.051,0.025 ± 0.02,-0.0045 ± 0.047,-0.042 ± 0.021,0.0375 ± 0.0064,0.0825 ± 0.019,-0.0025 ± 0.0078,0.112 ± 0.022,0.118 ± 0.044,-0.042 ± 0.021,-0.0315 ± 0.047,0.01 ± 0.0057,0.0595 ± 0.025,0.0695 ± 0.021
